Test results published in patent US20070244071A1, “Treatment of proliferative diseases” (MOUNT SINAI HOSPITAL, priority 2006, published 2007).

Legend:
DR26 cells = experiment: Steady-state nuclear Smad2-p and Erk-p, DR26 cells; assay type: cell-based; conditions: DR26 cells in culture, 1% FBS
MvLu cells = experiment: Steady-state nuclear Smad2-p and Erk-p, MvLu cells; assay type: cell-based; conditions: MvLu cells in culture, 1% FBS
[1] = tested on: non-transformed MvLu epithelial cells; experiment: Cytotoxicity / cell growth assay, MvLu cells; assay type: cell-based; conditions: increasing concentrations, DMEM 1% FBS, AlamarBlue, 72 h (source says 48 h)
Description: In brief, 1000 cells/well were seeded in 96 well plates and cultured for 24 h prior to the addition of DAM-1976. Viable cells were measured at 48 or 72 h by adding of either XTT or AlamarBlue with further incubation at 37° C. For the XTT assay, absorbance was measured at 500 nm, 4 h after addition of XTT. Fluorescence with excitation at 544 nm and emission at 590 nm were measured 24 h after addition of AlamarBlue.

[2] = tested on: Mgat5^+/+(2.6) mammary carcinoma cells; experiment: Nuclear Smad2/3 and Erk-p (TGF-β / EGF sensitivity) in Mgat5^+/+(2.6) cells; assay type: cell-based, mice; conditions: Mgat5^+/+(2.6) cells in culture, 1% FBS, steady state
[3] = tested on: TGF-β induced Smad2/3 nuclear translocation; experiment: TGF-β-dependent Smad2/3 nuclear translocation assay in NMuMG cells; assay type: cell-based, Murine
Description: NMuMG epithelial cells were plated in 96 well Coming tissue plates (Coming) at a density of 5000 cells/well in 100 μl of DMEM, 10% FBS, 10 μg/ml insulin (Gibco) for 24 h. The medium was replaced with 100 μl of DMEM, 10 μg/ml insulin, 0.2 mg/ml BSA (fraction V) for 18 h. Test compounds at 10 μM were added and cells were incubated for 60 min at 37° C. TGF-β1 (R&D System, Minneapolis, Minn.) was added at 50 pM and incubated for a further 50 min. Cells were then fixed with 4% paraformaldehyde in PBS for 15 min and washed 3 times in PBS. Cells were permeabilized with 100% methanol for 2 min, then washed 3 times with PBS, followed by the addition of 150 μl PBS, 10% FBS. Plates were stored overnight at 4° C. Anti-Smad2/3 or anti-phospho-Smad2 antibodies (Transduction Laboratories, San Jose, Calif.) diluted 1:1000 in PBS plus 10% FBS were added at 50 μl/well and the plates were incubated for 1 h at 20° C. […] The wells were washed 3 times with PBS and imaged and quantified on the Array Scan (Cellomics Inc., Pittsburgh, Pa.) using the cytoplasmic-nuclear translocation program. To measure Erk phosphorylation (Erk-p) and nuclear translocation, mouse anti-phospho-Erkl/2 (Thr202/Tyr204) (Sigma, St. Louis, Mo.) was added at 1/1000 in PBS plus 10% FBS for 1 h at 20° C. The nuclear-cytoplasmic difference was determined for 100 cells per well, generating a mean±SE for each condition.

## TGF-β: transforming growth factor-beta cytokine; TGF-β1 (R&D System) used as stimulus and growth comparator
DR26 cells
  basal nuclear Erk-p: a decline or no change
  basal nuclear Smad2-p: not altered
MvLu cells
  basal nuclear Erk-p: a decline or no change
  basal nuclear Smad2-p: increased slightly
[1]
  cell growth (cell number): inhibited
[2]
  basal nuclear Erk-p: enhanced
  basal nuclear Smad2-p: not altered
[3]; 20 min after addition of cytokine, sustained until 50 min
  increase in nuclear Smad2/3 protein: 10 fold
[3]; dose of 50 pM
  saturation of Smad2/3 nuclear translocation: ~80%
